The CombiSolv-Exp solvation set (Vermeire and Green 2021)

Assay: solvent given as SMILES

c1cc2ccc3cccc4ccc(c1)c2c34
Conditions	solvation free energy, 298 K [kcal/mol]
in Brc1ccccc1	-13.2
in C1CCOC1	-13.4
in C1COCCO1	-13
in CC(=O)N(C)C	-13.3
in CC(C)(C)O	-11.2
in CC(C)=O	-12.7
in CC(C)CC(C)(C)C	-11.3
in CC(C)CC(C)O	-11.4
in CC(C)CCO	-11.4
in CC(C)CO	-11.2
in CC(C)O	-11.5
in CC(C)OC(C)C	-12
in CC(O)COC(C)(C)C	-12.3
in CCC(C)(C)O	-11.5
in CCC(C)=O	-13
in CCC(C)O	-11.3
in CCCC(=O)OC	-12.7
in CCCC(C)CO	-11.5
in CCCC(C)O	-11.5
in CCCCC(CC)CO	-11.7
in CCCCCC	-11.5
in CCCCCCC	-11.6
in CCCCCCCC	-11.7
in CCCCCCCCC=CCCCCCCCC(=O)OCC(COC(=O)CCCCCCCC=CCCCCCCCC)OC(=O)CCCCCCCC=CCCCCCCCC	-12.3
in CCCCCCCCCC	-11.8
in CCCCCCCCO	-11.9
in CCCCCCCO	-11.8
in CCCCCCO	-11.8
in CCCCCO	-11.7
in CCCCCOC(C)=O	-12.7
in CCCCCl	-12.8
in CCCCO	-11.6
in CCCCOC(C)=O	-12.7
in CCCCOCCCC	-12.1
in CCCCOCCO	-12.4
in CCCO	-11.5
in CCCOCCO	-12.4
in CCO	-11.6
in CCOC(C)=O	-12.7
in CCOCC	-12.4
in CCOCCO	-12.5
in CN(C)C=O	-13.2
in CNC=O	-11.8
in CO	-11.2
in COC(C)(C)C	-12.2
in COC(C)=O	-12.6
in COC(C)CCO	-12.3
in COCCO	-12.2
in Cc1ccc(C)cc1	-12.8
in Cc1cccc(C)c1	-12.8
in Cc1ccccc1C	-12.9
in ClC(Cl)(Cl)Cl	-12.7
in ClC(Cl)Cl	-13.2
in ClCCCl	-13.2
in Fc1ccccc1	-12.9
in N#Cc1ccccc1	-13.1
in O	-4.77
in O=C1CCCCC1	-13.2

Oc1ccc2ccccc2c1
Conditions	solvation free energy, 298 K [kcal/mol]
in Brc1ccccc1	-10.4
in CC(C)CC(C)(C)C	-8.21
in CCCCCC	-8.46
in CCCCCCC	-8.53
in CCCCCCCC	-8.63
in CCCCCCCCCC	-8.61
in ClC(Cl)(Cl)Cl	-9.45
in ClC(Cl)Cl	-10.5
in Clc1ccccc1	-10.3
in O	-8.12

C=C(C)C1CC=C(C)C(OC(=O)CCC)C1 (stereo not given)
Conditions	solvation free energy, 298 K [kcal/mol]
in O	-3.9

Clc1cc(-c2c(Cl)cc(Cl)c(Cl)c2Cl)c(Cl)c(Cl)c1Cl
Conditions	solvation free energy, 298 K [kcal/mol]
in O	-4.61

C=C(C)C1CC=C(C)CCC=C(C)CC1 (stereo not given)
Conditions	solvation free energy, 298 K [kcal/mol]
in O	-0.37

C=C(C)CCC
Conditions	solvation free energy, 298 K [kcal/mol]
in O	1.46

CCc1cccc(CC)c1N(COC)C(=O)CCl
Conditions	solvation free energy, 298 K [kcal/mol]
in O	-8.21

C=C(C)C(=O)O
Conditions	solvation free energy, 298 K [kcal/mol]
in O	-6.08

CCCCCCC(=O)O
Conditions	solvation free energy, 298 K [kcal/mol]
in O	-6.12

CCCCl
Conditions	solvation free energy, 298 K [kcal/mol]
in Brc1cccc2ccccc12	-3.29
in C1CCOC1	-3.88
in C1CCOCC1	-3.79
in C=CCCCCCCCCCCCCCC	-3.01
in CC(=O)OCc1ccccc1	-3.4
in CC(C)CC(C)(C)C	-3.2
in CCC(C)=O	-3.68
in CCCCCC	-3.37
in CCCCCCC	-3.27
in CCCCCCCC	-3.22
in CCCCCCCCC=CCCCCCCCC(=O)OCC(COC(=O)CCCCCCCC=CCCCCCCCC)OC(=O)CCCCCCCC=CCCCCCCCC	-3.25
in CCCCCCCCCCCCCCCC	-3.01
in CCCCCCCCO	-3.06
in CCCCCl	-3.68
in CCCCO	-3.16
in CCOC(C)=O	-3.68
in Cc1ccc(C)cc1	-3.58
in ClC(Cl)(Cl)Cl	-3.7
in ClC(Cl)Cl	-3.62
in ClCCCl	-3.7
in O	-0.37
in O=C1CCCCC1	-3.67
in [2H]O[2H]	-0.74
in c1ccc2ncccc2c1	-3.35

CC(C)C1=CC2=CCC3C(C)(C)CCCC3(C)C2CC1 (stereo not given)
Conditions	solvation free energy, 298 K [kcal/mol]
in O	-0.08

CCCOC=O
Conditions	solvation free energy, 298 K [kcal/mol]
in CCCCCCCCCCCCCCCC	-3.29
in CCCCCCCCO	-3.64
in O	-2.51
in [2H]O[2H]	-2.55

CCCCCCCN
Conditions	solvation free energy, 298 K [kcal/mol]
in CCCCCCC	-6.22

CC(=O)OC1CC(C)CCC1C(C)C (stereo not given)
Conditions	solvation free energy, 298 K [kcal/mol]
in O	-2.59

Cc1ccc(O)cc1C
Conditions	solvation free energy, 298 K [kcal/mol]
in CCCCCC	-6.89
in CCCCCCC	-6.89
in CCCCCCCC	-6.85
in O	-6.51

C=CC
Conditions	solvation free energy, 298 K [kcal/mol]
in C1CCC2CCCCC2C1	-1.43
in C1COCCO1	-1.36
in CC1COC(=O)O1	-0.97
in CC(C)(C)O	-1.35
in CC(C)CC(C)(C)C	-1.61
in CC(C)CCO	-1.31
in CC(C)CO	-1.3
in CC(C)O	-1.32
in CCC(C)(C)O	-1.39
in CCC(C)=O	-1.54
in CCC(C)CO	-1.3
in CCC(C)O	-1.32
in CCC(O)CC	-1.31
in CCCC(C)O	-1.31
in CCCCC	-1.79
in CCCCCC	-1.75
in CCCCCCC	-1.74
in CCCCCCCC	-1.71
in CCCCCCCCC	-1.7
in CCCCCCCCCC	-1.68
in CCCCCCCCCCCCCCCC	-1.32
in CCCCCCCCO	-1.25
in CCCCCO	-1.32
in CCCCO	-1.41
in CCCO	-1.35
in CCOC(C)=O	-1.51
in CN1CCCC1=O	-1.24
in CN(C)C=O	-1.3
in CN(C)P(=O)(N(C)C)N(C)C	-1.39
in CO	-1.3
in COCCOCCOCCOC	-1.06
in CS(C)=O	-0.78
in Cc1ccc(C)cc1	-1.58
in Cc1cccc(C)c1	-1.58
in Cc1ccccc1C	-1.56
in ClC(Cl)(Cl)Cl	-1.84
in Nc1ccccc1	-1.08
in O	1.22
in OCCCOCCCO	-0.76
in OCCO	-0.45
in OCc1ccccc1	-1.09
in c1ccccc1	-1.64

ClC1C(Cl)C(Cl)C(Cl)C(Cl)C1Cl (stereo not given)
Conditions	solvation free energy, 298 K [kcal/mol]
in CCCCCCCCC=CCCCCCCCC(=O)OCC(COC(=O)CCCCCCCC=CCCCCCCCC)OC(=O)CCCCCCCC=CCCCCCCCC	-11.2
in CCCCCCCCO	-10.9

CCCCCCCCBr
Conditions	solvation free energy, 298 K [kcal/mol]
in O	0.52

Cc1ccc(C(=O)N(C)C)cc1
Conditions	solvation free energy, 298 K [kcal/mol]
in O	-9.76

CI
Conditions	solvation free energy, 298 K [kcal/mol]
in Brc1cccc2ccccc12	-3.3
in CC(=O)N(C)C	-3.63
in CC(=O)OCc1ccccc1	-3.34
in CC(C)=O	-3.56
in CC(C)CC(C)(C)C	-2.94
in CCC(C)=O	-3.48
in CCCCCCC	-3.03
in CCCCCCCC	-2.99
in CCCCCCCCO	-2.95
in CCCCCl	-3.44
in CCCCO	-3.04
in CCO	-2.99
in CCOC(C)=O	-3.46
in CN1CCCC1=O	-3.77
in CN(C)C=O	-3.49
in CO	-3.21
in Cc1ccc(C)cc1	-3.47
in ClC(Cl)(Cl)Cl	-3.49
in ClC(Cl)Cl	-3.78
in ClCCCl	-3.62
in ClCCl	-3.83
in N#Cc1ccccc1	-3.41
in O	-0.89
in O=C1CCCCC1	-3.58
in c1ccc2ncccc2c1	-3.4

Oc1ccc(F)cc1
Conditions	solvation free energy, 298 K [kcal/mol]
in O	-6.19

OCc1ccccc1O
Conditions	solvation free energy, 298 K [kcal/mol]
in O	-10.2

CCCCCCCCCCOC(=O)c1ccccc1C(=O)OCCCCC
Conditions	solvation free energy, 298 K [kcal/mol]
in O	-6.49

COc1ccc(C(=O)N(C)C)cc1
Conditions	solvation free energy, 298 K [kcal/mol]
in O	-11

O=C(O)c1cccc(O)c1
Conditions	solvation free energy, 298 K [kcal/mol]
in O	-9.55

CCCCCCCCCCCCCCCCCCCC
Conditions	solvation free energy, 298 K [kcal/mol]
in CC(=O)N(C)C	-13.6
in CC(C)(C)O	-12.4
in CCC(C)=O	-12.6
in CCCCCCCCC=CCCCCCCCC(=O)OCC(COC(=O)CCCCCCCC=CCCCCCCCC)OC(=O)CCCCCCCC=CCCCCCCCC	-12.5
in CCCCOC(C)=O	-12.9
in CCO	-11.4
in CN(C)C=O	-13.6
in COC(C)(C)C	-13.5
in O	4.52
